In patent US9539322B2, “Method of enhancing an antitumor T cell response by administering an anti-IL-6 receptor antibody” (National University Corporation Hokkaido University, priority 2010, dated 2017):
Where a name gives a salt, the structure may show the parent alone.

Legend:
CD8^+ cells = assay: Growth ability of spleen CD8+ cells after anti-CD3 stimulation (3H incorporation test), CMC-1 tumor-bearing mice; assay type: in vivo, BALB/c mice; settings: i.p. 30 days after CMC-1 inoculation (GEM; CY 60 mg/kg; 5-FU 120 mg/kg); spleen CD8+ cells after 48 hours; 60 hours immobilized anti-CD3 2 μg/ml; FIG. 3
Description: (§1) GEM was administered to the tumor-bearing mice 30 days after CMC-1 inoculation, and after 48 hours the absolute number of respective cell populations in the spleen were analyzed by flow cytometry. Cyclophosphamide (CY) (60 mg/kg), fluoro-5-uracil (5-FU) (120 mg/kg), or GEM was intraperitoneally administered to tumor-bearing mice 30 days after CMC-1 inoculation. After 48 hours, CD8^+ cells were isolated from the spleen, and the growth ability after 60 hours of stimulation with immobilized anti-CD3 antibody (2 μg/ml) was assessed by ^3H incorporation test.

immunosuppressive cells = assay: Flow cytometry of the absolute number of cell populations in the spleen of CMC-1 tumor-bearing mice; assay type: in vivo, BALB/c mice; settings: tumor-bearing mice 30 days after CMC-1 inoculation; 48 hours after administration; FIG. 2
Description: as §1

[1] = system: methylcholanthrene-induced squamous cancer CMC-1; assay: Antitumor effect of GEM in CMC-1-inoculated mice (tumor growth); assay type: in vivo; settings: CMC-1 intradermal in BALB/c mice; 120 mg/kg i.p. every week from day 5; FIG. 1
Description: Cell line of methylcholanthrene-induced squamous cancer CMC-1 (2×10^6 cells) was intradermally inoculated to BALB/c mice, and from day 5 after inoculation, GEM (Gemzar: gemcitabine hydrochloride) was intraperitoneally administered at 120 mg/kg every week. The tumor growth was measured every two days to evaluate the antitumor effect of GEM.

CD8^+ T cells = assay: Tumor diameter with GEM and anti-CD8 antibody (CMC-1); proportion of OVA-specific CD8+ cytotoxic T cells (LLC-OVA); assay type: in vivo, BALB/c mice; C57BL6 mice; settings: GEM 120 mg/kg i.p.; anti-CD8 antibody 250 μg i.v. every three days (CMC-1); OVA-specific CD8+ CTL in regional lymph nodes (LLC-OVA); FIG. 4, 5
Description: CMC-1 (2×10^6) was intradermally inoculated to BALB/c mice. From day 5 after inoculation, GEM (120 mg/kg) was intraperitoneally administered every week and anti-CD8 antibody (250 μg) was intravenously administered every three days. The tumor diameter was measured every two days. LLC-OVA (2×10^6) prepared by introducing the ovalbumin (OVA) gene into mouse lung cancer cell line LLC was intradermally inoculated to C57BL6 mice, and after five days GEM (120 mg/kg) was intraperitoneally administered. After nine days, the regional lymph nodes were collected and assessed by flow cytometry for the proportion of OVA-specific CD8^+ cytotoxic T cells.

Compound	growth-enhancing effect for CD8+ T cells (CD8^+ cells)	elimination of immunosuppressive cells in the spleen (immunosuppressive cells)	tumor growth-suppressive effect [1]	antitumor effect through CD8+ T cell activity (CD8^+ T cells)
O=c1[nH]cc(F)c(=O)[nH]1 [5-FU, fluoro-5-uracil]	not observed	–	–	–
O=P1(N(CCCl)CCCl)NCCCO1 (stereo not drawn) [CY, Cyclophosphamide]	not observed	–	–	–
Nc1ccn([C@@H]2O[C@H](CO)[C@@H](O)C2(F)F)c(=O)n1 [GEM, gemcitabine hydrochloride]	excellent growth-enhancing effect for CD8^+ T cells	eliminates immunosuppressive cells	tumor growth-suppressive effect	produces the antitumor effect by enhancing the activity of CD8^+ T cells
